Values of other authors, collected in article PMC9227781, “Inhibitors of O-Acetylserine Sulfhydrylase with a Cyclopropane-Carboxylic Acid Scaffold Are Effective Colistin Adjuvants in Gram Negative Bacteria” (Pharmaceuticals, 2022).

Key:
StOASS-A = target: T1, StOASS-A (Salmonella typhimurium, UniProt P0A1E3); parameters: method as in PMID 26894308; conditions: read-out: KD toward isoform A from S. Typhimurium; cited from earlier work
T1 construct: His-tag (with TEV site) (cleaved yes); made in house; host or cells: E. coli Rosetta (DE3)

StOASS-B = target: T2, StOASS-B (Salmonella typhimurium, UniProt P29848); parameters: method as in PMID 26894308; conditions: read-out: KD toward isoform B from S. Typhimurium; cited from earlier work
T2 construct: His-tag (with TEV site) (cleaved yes); made in house; host or cells: E. coli Rosetta (DE3)
T2 sequence (P29848 1-303): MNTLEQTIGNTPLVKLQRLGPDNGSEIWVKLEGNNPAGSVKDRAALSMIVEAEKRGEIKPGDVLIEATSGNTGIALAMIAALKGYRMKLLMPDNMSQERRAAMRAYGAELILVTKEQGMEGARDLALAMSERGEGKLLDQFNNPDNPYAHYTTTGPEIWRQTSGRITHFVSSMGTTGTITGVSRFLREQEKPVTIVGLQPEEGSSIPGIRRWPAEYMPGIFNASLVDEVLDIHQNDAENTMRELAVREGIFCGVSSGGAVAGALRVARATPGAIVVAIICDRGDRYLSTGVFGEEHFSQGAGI

[1] = system: all bacterial species considered in that study; parameters: method as in PMID 33513010; conditions: cited from earlier work

T1 sequence (P0A1E3 whole entry, canonical isoform): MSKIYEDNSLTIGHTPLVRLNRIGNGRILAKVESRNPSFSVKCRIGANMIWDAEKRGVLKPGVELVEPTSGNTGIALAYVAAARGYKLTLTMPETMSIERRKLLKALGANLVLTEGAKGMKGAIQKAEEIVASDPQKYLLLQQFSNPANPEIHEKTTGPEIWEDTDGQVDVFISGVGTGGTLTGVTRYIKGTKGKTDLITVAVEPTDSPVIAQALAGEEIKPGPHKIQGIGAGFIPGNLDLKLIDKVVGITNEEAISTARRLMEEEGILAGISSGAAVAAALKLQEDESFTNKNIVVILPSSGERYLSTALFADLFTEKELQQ

Q: What does the source list for Cc1ccc(C[C@@]2(C(=O)O)C[C@H]2c2ccccc2)cc1 [UPAR415]?
A: Kd (StOASS-A): 28 nM; Kd (StOASS-B): 490 nM; effect as colistin adjuvant [1]: synergistic or additive effect
